Experimental data reported in ChEMBL document CHEMBL1201862, “PubChem BioAssay data set” (2004).
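1) Cells in 96-well plates. 2) Compound, 48 h, 5 concentrations. 3) Linear interpolation between surrounding doses. 4) Unreached endpoint = highest concentration. Here, GI50 denotes the concentration required for 50% inhibition of growth.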 Calls of active or inactive are those of the source. Rule as the data show it: active = GI50 up to about 1.1 µM and inactive = higher.

Key:
Assay in all cases: NCI-60 cell line screen, 48 h
UACC-62 = test system: UACC-62
MCF7 = test system: MCF7
786-0 = test system: 786-0
MDA-N = test system: MDA-N
Malme-3M = test system: Malme-3M
HCT-15 = test system: HCT-15
ACHN = test system: ACHN
EKVX = test system: EKVX
Hs-578T = test system: Hs-578T
T47D = test system: T47D
HL-60 = test system: HL-60
PC-3 = test system: PC-3
DU-145 = test system: DU-145
MOLT-4 = test system: MOLT-4
K562 = test system: K562
SK-MEL-5 = test system: SK-MEL-5
KM12 = test system: KM12
CAKI-1 = test system: CAKI-1
OVCAR-3 = test system: OVCAR-3
SK-OV-3 = test system: SK-OV-3

SMILES	GI50 (UACC-62)	GI50 (MCF7)	GI50 (786-0)	GI50 (MDA-N)	GI50 (Malme-3M)	GI50 (HCT-15)	GI50 (ACHN)	GI50 (EKVX)	GI50 (Hs-578T)	GI50 (T47D)	GI50 (HL-60)	GI50 (PC-3)	GI50 (DU-145)	GI50 (MOLT-4)	GI50 (K562)	GI50 (SK-MEL-5)	GI50 (KM12)	GI50 (CAKI-1)	GI50 (OVCAR-3)	GI50 (SK-OV-3)
CNC(=S)Nc1sc2c(c1C#N)CCCC2	> 75 µM (inactive)	> 75 µM (inactive)	> 75 µM (inactive)	> 75 µM (inactive)	> 75 µM (inactive)	> 75 µM	> 75 µM (inactive)	> 75 µM (inactive)	> 75 µM (inactive)	> 75 µM (inactive)	> 75 µM (inactive)	> 75 µM (inactive)	> 75 µM (inactive)	> 75 µM (inactive)	> 75 µM (inactive)	> 75 µM (inactive)	> 75 µM (inactive)	> 75 µM (inactive)	> 75 µM (inactive)	
COc1cc(C2c3c(ccc4ccccc34)C(=O)C3CCC(=O)N32)cc(OC)c1OC (stereo not drawn)	> 50 µM (inactive)	> 50 µM (inactive)	> 50 µM (inactive)	> 50 µM (inactive)		> 50 µM	> 50 µM (inactive)	> 50 µM (inactive)	> 50 µM (inactive)	> 50 µM (inactive)	> 50 µM (inactive)	> 50 µM (inactive)	> 50 µM (inactive)	> 50 µM (inactive)	> 50 µM (inactive)		> 50 µM (inactive)	> 50 µM (inactive)	> 50 µM (inactive)	> 50 µM (inactive)
CCOc1cc2c(cc1O)/C(=N/NS(=O)(=O)c1ccc(C)cc1)C[C@@H]1[C@@H]2CC[C@]2(C)[C@@H](O)CC[C@@H]12		4.02 µM (inactive)	9.73 µM (inactive)	1.2 µM (inactive)	7.43 µM (inactive)	4.53 µM	10.5 µM (inactive)	13 µM (inactive)	7.57 µM (inactive)	6.87 µM (inactive)		7.53 µM (inactive)		1.92 µM (inactive)	1.02 µM (active)	2.47 µM (inactive)	4.22 µM (inactive)	12.6 µM (inactive)		10.5 µM (inactive)
CC(C)CC(NC=O)C(=O)NC(Cc1ccccc1)NC(=O)CNC(=O)C(C)NC(=O)C(N)Cc1ccc(O)cc1 (stereo not drawn)	> 100 µM (inactive)	> 100 µM (inactive)	> 100 µM (inactive)	> 100 µM (inactive)		> 100 µM	> 100 µM (inactive)	> 100 µM (inactive)	> 100 µM (inactive)	> 100 µM (inactive)	> 100 µM (inactive)	> 100 µM (inactive)	> 100 µM (inactive)	> 100 µM (inactive)	> 100 µM (inactive)	> 100 µM (inactive)	> 100 µM (inactive)	> 100 µM (inactive)	> 100 µM (inactive)	> 100 µM (inactive)
COc1ccc(C(=O)CC(c2ccccc2)[C@H]2C(c3ccc(OC)cc3)=Nc3c(nc(SC)n(C)c3=O)NC2c2ccccc2)cc1 (stereo partly drawn)	> 100 µM (inactive)	> 100 µM (inactive)	> 100 µM (inactive)	> 100 µM (inactive)		> 100 µM		> 100 µM (inactive)	> 100 µM (inactive)	> 100 µM (inactive)		> 100 µM (inactive)	> 100 µM (inactive)	> 100 µM (inactive)	> 100 µM (inactive)	41.3 µM (inactive)	> 100 µM (inactive)	> 100 µM (inactive)	> 100 µM (inactive)	> 100 µM (inactive)
CCCCCCCCCC[C@H](O)[C@H]1CC[C@H]([C@H]2CC[C@H]([C@H](O)CC[C@H](O)CCCCCCC[C@@H](O)CC3=C[C@H](C)OC3=O)O2)O1	> 10 µM (inactive)	1.52 µM (inactive)	25.1 µM (inactive)	8.75 µM (inactive)	25.8 µM (inactive)	43.9 µM	1.6 µM (inactive)	23.5 µM (inactive)	> 10 µM (inactive)	5.25 µM (inactive)	2.51 µM (inactive)	5.7 µM (inactive)	> 10 µM (inactive)	2.96 µM (inactive)	2.96 µM (inactive)	1.41 µM (inactive)	9.14 µM (inactive)	57 µM (inactive)	18.3 µM (inactive)	
O=C(CON1C(=O)c2ccccc2C1=O)c1ccccc1	> 100 µM (inactive)	40.1 µM (inactive)	32.4 µM (inactive)	> 100 µM (inactive)	21.1 µM (inactive)	> 100 µM	> 100 µM (inactive)	> 100 µM (inactive)	> 100 µM (inactive)	22.3 µM (inactive)		> 100 µM (inactive)	> 100 µM (inactive)		45.9 µM (inactive)	> 100 µM (inactive)	> 100 µM (inactive)	19.1 µM (inactive)	49.9 µM (inactive)	> 100 µM (inactive)
C[C@H](C(=O)N1C(=O)O[C@@H](c2ccccc2)[C@H]1C)[C@H](c1ccccc1)N(Cc1ccccc1)OC(=O)c1ccccc1	28.6 µM (inactive)	30.1 µM (inactive)	57.4 µM (inactive)	48.9 µM (inactive)	> 100 µM (inactive)	29.6 µM	31.8 µM (inactive)		84.5 µM (inactive)	15.8 µM (inactive)	29 µM (inactive)	53.5 µM (inactive)	66.1 µM (inactive)	22.1 µM (inactive)	31.6 µM (inactive)	21 µM (inactive)	49.3 µM (inactive)	77.1 µM (inactive)		38.8 µM (inactive)
O=C(CN1c2ccccc2Sc2ccccc21)N1CCNCC1	> 100 µM (inactive)	> 100 µM (inactive)	> 100 µM (inactive)	> 100 µM (inactive)	> 100 µM (inactive)	> 100 µM	> 100 µM (inactive)	> 100 µM (inactive)	> 100 µM (inactive)	71.9 µM (inactive)	> 100 µM (inactive)	73.1 µM (inactive)	> 100 µM (inactive)	64.7 µM (inactive)	> 100 µM (inactive)	40.3 µM (inactive)	64.4 µM (inactive)		> 100 µM (inactive)	> 100 µM (inactive)
O=C(O)CCCC#CCCCC(=O)O	> 100 µM (inactive)	> 100 µM (inactive)	> 100 µM (inactive)	> 100 µM (inactive)	> 100 µM (inactive)	> 100 µM	> 100 µM (inactive)	> 100 µM (inactive)	> 100 µM (inactive)	> 100 µM (inactive)		> 100 µM (inactive)	> 100 µM (inactive)		> 100 µM (inactive)	> 100 µM (inactive)	> 100 µM (inactive)	> 100 µM (inactive)	> 100 µM (inactive)	> 100 µM (inactive)
Cn1c(=O)c(-c2ccccc2)c(N=[N+]=[N-])c2ccccc21	42.3 µM (inactive)	54.3 µM (inactive)		72.8 µM (inactive)	30.9 µM (inactive)	39.4 µM	30.8 µM (inactive)		37.7 µM (inactive)	19.8 µM (inactive)		22.3 µM (inactive)	> 100 µM (inactive)	20.9 µM (inactive)	34.8 µM (inactive)	53.2 µM (inactive)	37.8 µM (inactive)	29.4 µM (inactive)	44.2 µM (inactive)	> 100 µM (inactive)
CCOC(=O)c1ccc(-c2onc(C)c2Br)[nH]1	56 µM (inactive)	27.7 µM (inactive)	43.4 µM (inactive)	66.4 µM (inactive)	79.6 µM (inactive)	36.1 µM	37.6 µM (inactive)	37 µM (inactive)	70.5 µM (inactive)	30 µM (inactive)		60 µM (inactive)	55.3 µM (inactive)	> 100 µM (inactive)	80.2 µM (inactive)	41.3 µM (inactive)	74 µM (inactive)	50.8 µM (inactive)	30.4 µM (inactive)	76.6 µM (inactive)
COc1ccc2c(c1)-c1[nH]c3ccccc3c1CC2	15.6 µM (inactive)	14.9 µM (inactive)	16.4 µM (inactive)	16 µM (inactive)	12.4 µM (inactive)	14.7 µM	18.1 µM (inactive)	10.1 µM (inactive)	15.4 µM (inactive)	13.5 µM (inactive)		14.9 µM (inactive)	17.9 µM (inactive)	12.1 µM (inactive)	21.6 µM (inactive)	13.2 µM (inactive)	13.6 µM (inactive)	15.4 µM (inactive)	18.2 µM (inactive)	18.1 µM (inactive)
O=C(O)CCC(c1ccccc1)(c1ccccc1)c1ccccc1	27.4 µM (inactive)	17.7 µM (inactive)	62.2 µM (inactive)	30.3 µM (inactive)	> 100 µM (inactive)	29.2 µM	31 µM (inactive)	36 µM (inactive)	29.9 µM (inactive)	0.647 µM (active)	37.2 µM (inactive)	33 µM (inactive)	17.2 µM (inactive)	33.9 µM (inactive)	37.7 µM (inactive)	32 µM (inactive)	51.1 µM (inactive)		14.7 µM (inactive)	31.9 µM (inactive)
CC(C(=O)NCNC(=O)c1ccccc1)C(=O)Nc1ccccc1 (stereo not drawn)	> 100 µM (inactive)	> 100 µM (inactive)	> 100 µM (inactive)	> 100 µM (inactive)	> 100 µM (inactive)	> 100 µM	> 100 µM (inactive)	> 100 µM (inactive)	> 100 µM (inactive)	> 100 µM (inactive)	> 100 µM (inactive)	> 100 µM (inactive)	> 100 µM (inactive)	> 10 µM (inactive)		> 100 µM (inactive)	> 100 µM (inactive)	> 100 µM (inactive)		> 100 µM (inactive)
